Activity calls are given as the source filed them. The rule behind the calls is not given here. Peptide text beside a SMILES is read from it. * marks the point of attachment. Cbz = O=C(OCc1ccccc1)*

In ChEMBL document CHEMBL5344422, “Syrosingopine Enhances 20S Proteasome Activity and Degradation of α-Synuclein” (J Nat Prod, 2024) one finds fold change (FC), CD and Activity data, which are given here for 21 molecules.

Assay [1] has as its target T1, 20S proteasome (Homo sapiens) (UniProt P49721+P20618+P28074+P28062+P28065+P28072+P25786+P25787+P25788+P25789+P28066+P60900+O14818+Q8TAA3+P40306+A5LHX3+P49720+P28070+Q99436). Put plainly: Activation of human 20S proteasome chymotrypsin-like hydrolysis activity assessed as measuring fold increase in protein activity using SucLLVY-MCA as a fluorogenic substrate at 20 uM incubated for 1 hrs by fluorescence based assay relative to DMSO. The class given is protein-complex assay.

Assay [2] deals with T1, 20S proteasome (Homo sapiens). Put plainly: Activation of human 20S proteasome chymotrypsin-like hydrolysis activity assessed as measuring fold increase in protein activity using SucLLVY-MCA as a fluorogenic substrate at 10 uM incubated for 20 mins by fluorescence based assay relative to DMSO. The class given is protein-complex assay. As to conditions: filed as activator.

For assay [3] the target is unchanged. Put plainly: Activation of human 20S proteasome chymotrypsin-like hydrolysis activity assessed as concentration to doubling the protein activity using SucLLVY-MCA as a fluorogenic substrate measured after 1 hr by fluorescence based assay. The class given is protein-complex assay. Particulars: filed as activator.
The target is the same in assay [4]. Put plainly: Activation of human 20S proteasome trypsin-like hydrolysis activity assessed as concentration to doubling the protein activity using […] as a fluorogenic substrate measured after 1 hr by fluorescence based assay. The class given is protein-complex assay. Particulars: filed as activator.
Assay [5] shares this target. Put plainly: Activation of human 20S proteasome caspase-like hydrolysis activity assessed as concentration to doubling the protein activity using […] as a fluorogenic substrate measured after 1 hr by fluorescence based assay. As to conditions: filed as activator. The class given is protein-complex assay.
For assay [6] the target is unchanged. Description: Activation of human 20S proteasome mediated chymotrypsin-like proteolytic activity assessed as maximal fold increase in protein activity using SucLLVY-MCA as a fluorogenic substrate incubated for 1 hr by fluorescence based assay. The class given is protein-complex assay. Particulars: filed as activator.
The target is the same in assay [7]. Put plainly: Activation of human 20S proteasome mediated trypsin-like proteolytic activity assessed as maximal fold increase in protein activity using […] as a fluorogenic substrate incubated for 1 hr by fluorescence based assay. The class given is protein-complex assay. Particulars: filed as activator.
The target is the same in assay [8]. Put plainly: Activation of human 20S proteasome mediated caspase-like proteolytic activity assessed as maximal fold increase in protein activity using […] as a fluorogenic substrate incubated for 1 hr by fluorescence based assay. The class given is protein-complex assay. Particulars: filed as activator.
Assay [9] deals with 26S proteasome (Homo sapiens) (UniProt Q99460+P49721+P20618+P28074+P28062+P28065+P28072+O00487+P25786+P25787+P25788+P25789+P28066+P60900+O14818+Q8TAA3+P40306+A5LHX3+P49720+P28070+Q99436+Q16186+P35998+P62191+P43686+P62333+P17980+P62195+Q13200+O43242+O00232+O00231+Q15008+P51665+Q9UNM6+P55036+P48556+P60896). Put plainly: Activation of human 26S proteasome mediated proteolytic hydrolysis activity using SucLLVY-AMC as a flurogenic substrate measured every minute for 1 hrs by fluorescence based assay. The class given is protein-complex assay.

In assay [10] the target is T1, 20S proteasome (Homo sapiens). Description: Activation of human 20S proteasome assessed as alpha-synuclein degradation in presence of MG132 incubated for 20 mins by Western blot analysis. The class given is protein-complex assay.
Assay [11] shares this target. Description: Activation of 20S proteasome in human HeLa cells assessed as gate opening by measuring increase in membrane-permeable fluorescent probe signal pretreated for 20 hrs followed by treated with Me4BodipyFL-Ahx3Lue3VS probe for 2 hrs by flow cytometry relative to DMSO. The class given is cell-based. As to conditions: filed as activator, time 22.0 hrs.
The target is the same in assay [12]. Put plainly: Activation of human 20S proteasome assessed as alpha-synuclein degradation incubated for 20 mins by Western blot analysis. The class given is protein-complex assay. Particulars: filed as activator.
Assay [13] has the same target. Put plainly: Activation of human 20S proteasome chymotrypsin-like hydrolysis activity assessed as measuring fold increase in protein activity using SucLLVY-MCA as a fluorogenic substrate at 20 uM incubated for 20 mins by fluorescence based assay relative to DMSO. As to conditions: filed as activator. The class given is protein-complex assay.

With `C[C@H]1[C@H](C)CC[C@]2(C(=O)O)CC[C@]3(C)C(=CC[C@@H]4[C@@]5(C)CC[C@H](O)C(C)(C)[C@@H]5CC[C@]43C)[C@H]12`, the fold change (FC) in [1] (filed as activator) worked out at 6.5.

On to `Cc1cc2nc3c(=O)[nH]c(=O)nc-3n(C[C@H](O)[C@H](O)[C@H](O)CO)c2cc1C`, for which the fold change (FC) in assay [1] (filed as activator) is 4.5.

With `CC(C)[C@H]1C(=O)N2CCC[C@H]2[C@]2(O)O[C@](NC(=O)[C@@H]3C[C@@H]4c5cccc6[nH]cc(c56)C[C@H]4N(C)C3)(C(C)C)C(=O)N12`, the fold change (FC) in [1] (filed as activator) amounted to 4.3.

Take `CC(C)[C@@]1(NC(=O)[C@@H]2C[C@@H]3c4cccc5[nH]cc(c45)C[C@H]3N(C)C2)O[C@@]2(O)[C@@H]3CCCN3C(=O)[C@H](Cc3ccccc3)N2C1=O`: the fold change (FC) in [1] (filed as activator) is 8.

For the molecule `CC(C)C[C@H]1C(=O)N2CCC[C@H]2[C@]2(O)O[C@](NC(=O)[C@@H]3C=C4c5cccc6[nH]cc(c56)C[C@H]4N(C)C3)(C(C)C)C(=O)N12`, the fold change (FC) in assay [1] (filed as activator) worked out at 8.9.

For `COC(=O)[C@H]1[C@H]2C[C@H]3c4[nH]c5ccccc5c4CCN3C[C@@H]2CC[C@@H]1O`, the fold change (FC) in [1] was less than 3; in assay [2] it was 0.99.

In the case of `CC(C)C[C@H]1C(=O)N2CCC[C@H]2[C@]2(O)O[C@](NC(=O)[C@@H]3C=C4c5cccc6[nH]c(Br)c(c56)C[C@H]4N(C)C3)(C(C)C)C(=O)N12`, in assay [1] (filed as activator), the fold change (FC) worked out at 6.7.

Regarding `CCOC(=O)Oc1c(OC)cc(C(=O)O[C@@H]2C[C@@H]3CN4CCc5c([nH]c6cc(OC)ccc56)[C@H]4C[C@@H]3[C@H](C(=O)OC)[C@H]2OC)cc1OC`, the fold change (FC) in assay [1] (filed as activator) came out at 13; in [2], 12.5; in [6] it was 9.8; in assay [7], 8; in assay [8], 9.4. The values for the CD in assay [3], in assay [4] and in assay [5] were 1 µM, 0.96 µM and 0.38 µM, respectively. Besides, the outcome in [9] was inactive. For the same molecule, the result in [10] (filed as activator) and in [12] was Active. Moreover, in [11], the Activity stood at 2.84.

As to `CC(C)C[C@@H](C=O)NC(=O)[C@H](CC(C)C)NC(=O)[C@H](CC(C)C)NC(=O)OCc1ccccc1` (Cbz-Leu-Leu-Leu-aldehyde), in [11], the Activity stood at 0.11.

On to `O=C(O)[C@@H]1[C@H]2C[C@H]3c4[nH]c5ccccc5c4CCN3C[C@@H]2CC[C@@H]1O`, for which the fold change (FC) in assay [1] was less than 3; in assay [2], 2.17.

For `COC(=O)[C@H]1[C@H]2C[C@@H]3c4[nH]c5cc(OC)ccc5c4CCN3C[C@H]2C[C@@H](OC(=O)c2cc(OC)c(OC)c(OC)c2)[C@@H]1OC`, the fold change (FC) came out at 7.9 in assay [1] (filed as activator); 7.91 in assay [2]; 4.8 in assay [6]; 7 in [7]; 7 in assay [8]. The CD in assay [3] stood at 1.6 µM; in [4], 1.3 µM; in assay [5], 0.53 µM. For the same molecule, the outcome in assay [9] and in [10] was inactive. In addition, the outcome in assay [12] was Active.

As for `COC(=O)[C@@H]1[C@H]2C[C@H]3c4[nH]c5ccccc5c4CCN3C[C@@H]2CC[C@@H]1O`, the results for the fold change (FC) in assay [1] and in assay [2] were less than 3 and 0.82, respectively.

As for `COc1cc(/C=C/C(=O)CC(=O)/C=C/c2ccc(O)c(OC)c2)ccc1O`, the fold change (FC) in assay [1] (filed as activator) was determined as 5.4.

In the case of `Cc1cc2c(C(C)C)c(O)c(O)c(C=O)c2c(O)c1-c1c(C)cc2c(C(C)C)c(O)c(O)c(C=O)c2c1O`, in assay [1] (filed as activator), the fold change (FC) is 4.

On to `COC(=O)[C@H]1/C(=N/O)CC[C@H]2CN3CCc4c([nH]c5ccccc45)[C@@H]3C[C@@H]21`, for which the fold change (FC) was less than 3 in assay [1] and 1.49 in [2].

As to `COc1ccc2c3c([nH]c2c1)[C@H]1C[C@H]2[C@H](C[C@@H](O)[C@H](OC)[C@H]2C(=O)O)CN1CC3`, the fold change (FC) in assay [1] was less than 3; in assay [2], 2.73.

With `CC(C)=CCC/C(C)=C/CC/C(C)=C/CC/C(C)=C/CC1=C(C)C(=O)c2ccccc2C1=O`, the fold change (FC) in assay [1] (filed as activator) came out at 4.5.

As for `COC(=O)[C@H]1[C@H]2C[C@H]3c4[nH]c5ccccc5c4CCN3C[C@H]2CC[C@@H]1O`, the results for the fold change (FC) in assay [1] and in [2] were less than 3 and 1.32, respectively.

On to RAUWOLFIA SERPENTINA, for which the fold change (FC) in assay [1] is less than 3; in assay [2], 1.05.

As for `CN(C)CCCN1c2ccccc2Sc2ccc(Cl)cc21`, in [13], the fold change (FC) came to 4.09. In assay [11], the Activity is 1.29.

With `CN1C[C@H](C(=O)N[C@]2(C)O[C@@]3(O)[C@@H]4CCCN4C(=O)[C@H](Cc4ccccc4)N3C2=O)C=C2c3cccc4[nH]cc(c34)C[C@H]21`, in assay [1] (filed as activator), the fold change (FC) worked out at 7.2.
